According to PubChem BioAssay (NCI):
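All cell lines were grown in 96-well plates and treated with compound for 48 hours. GI50 = concentration required for 50% inhibition of growth. The concentration for full growth arrest is given as TGI.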

Tests used:
Assay in all cases: NCI anticancer screen, dose series, 48 h
[1] = test system: MDA-MB-231 breast
[2] = test system: SK-OV-3 ovarian
[3] = test system: ACHN renal
[4] = test system: SK-MEL-28 melanoma
[5] = test system: KM12 colon
[6] = test system: MDA-N
[7] = test system: SW-620 colon
[8] = test system: COLO 205 colon
[9] = test system: OVCAR-4 ovarian
[10] = test system: NCI-H460 lung
[11] = test system: A498 renal
[12] = test system: HL-60(TB) leukemia
[13] = test system: OVCAR-3 ovarian
[14] = test system: MOLT-4 leukemia
[15] = test system: HCC-2998 colon
[16] = test system: DU-145 prostate
[17] = test system: TK-10 renal
[18] = test system: LOX IMVI melanoma
[19] = test system: CCRF-CEM leukemia

Cc1cccc(-c2cccc(COCc3cccc(-c4cccc(CO)n4)n3)n2)n1
TGI [1]: > 50 µM | TGI [2]: > 50 µM | TGI [3]: > 50 µM | TGI [4]: > 50 µM | TGI [5]: > 50 µM | TGI [6]: > 50 µM | TGI [7]: > 50 µM | TGI [8]: > 50 µM | TGI [9]: > 50 µM | TGI [10]: > 50 µM | TGI [11]: > 50 µM | TGI [12]: > 50 µM | TGI [13]: > 50 µM | TGI [14]: > 50 µM | TGI [15]: > 50 µM | TGI [16]: > 50 µM | TGI [17]: > 50 µM | TGI [18]: > 50 µM

Cc1cc2nn(C3CCCCO3)nc2cc1C (stereo not drawn)
TGI [1]: > 100 µM | TGI [2]: > 100 µM | TGI [3]: > 100 µM | TGI [5]: > 100 µM | TGI [6]: > 100 µM | TGI [8]: > 100 µM | TGI [9]: > 100 µM | TGI [10]: > 100 µM | TGI [11]: > 100 µM | TGI [19]: > 100 µM | TGI [13]: > 100 µM | TGI [14]: > 100 µM | TGI [15]: > 100 µM | TGI [16]: > 100 µM | TGI [17]: > 100 µM

[N-]=[N+]=CC(=O)OC1CCc2ccccc21 (stereo not drawn)
TGI [1]: > 100 µM | TGI [2]: > 100 µM | TGI [3]: 30.3 µM | TGI [4]: > 100 µM | TGI [6]: > 100 µM | TGI [7]: > 100 µM | TGI [8]: > 100 µM | TGI [9]: > 100 µM | TGI [10]: > 100 µM | TGI [11]: > 100 µM | TGI [12]: > 100 µM | TGI [13]: > 100 µM | TGI [15]: > 100 µM | TGI [16]: 48.7 µM | TGI [17]: > 100 µM | TGI [18]: > 100 µM

Clc1ccc(C2ON=C(c3ccccc3)N2C23CC4CC(CC(C4)C2)C3)cc1Cl (stereo not drawn)
TGI [1]: > 10 µM | TGI [2]: > 10 µM | TGI [3]: > 10 µM | TGI [4]: > 10 µM | TGI [5]: > 10 µM | TGI [6]: > 10 µM | TGI [7]: > 10 µM | TGI [8]: > 10 µM | TGI [9]: > 10 µM | TGI [10]: > 10 µM | TGI [11]: > 10 µM | TGI [19]: > 10 µM | TGI [13]: > 10 µM | TGI [14]: > 10 µM | TGI [15]: > 10 µM | TGI [16]: > 10 µM | TGI [17]: > 10 µM | TGI [18]: > 10 µM

O=C1c2ccccc2-c2nc(-c3cccs3)cc3c2c1nc1ccccc13
TGI [1]: > 100 µM | TGI [2]: > 100 µM | TGI [3]: > 100 µM | TGI [4]: 36.8 µM | TGI [5]: > 100 µM | TGI [6]: 20.4 µM | TGI [7]: 31 µM | TGI [8]: 37.5 µM | TGI [9]: > 100 µM | TGI [10]: > 100 µM | TGI [19]: > 100 µM | TGI [12]: 26.5 µM | TGI [13]: 9.39 µM | TGI [14]: > 100 µM | TGI [15]: 68 µM | TGI [16]: 31 µM | TGI [17]: > 100 µM | TGI [18]: 35.9 µM

C[C@]12CCC(=O)C=C1CC[C@@H]1[C@@H]2CC[C@]2(C)C(=O)/C(=C/c3ccncc3)C[C@@H]12
TGI [1]: 31.1 µM | TGI [2]: 56.7 µM | TGI [3]: 30.5 µM | TGI [4]: 45 µM | TGI [5]: 38.3 µM | TGI [6]: 54.3 µM | TGI [7]: > 100 µM | TGI [8]: 27.4 µM | TGI [9]: 55.1 µM | TGI [10]: 29.7 µM | TGI [19]: > 100 µM | TGI [12]: 31.8 µM | TGI [13]: 27.1 µM | TGI [14]: 64.9 µM | TGI [15]: 30.9 µM | TGI [16]: 29.2 µM | TGI [17]: 38.5 µM | TGI [18]: 30.8 µM

CCOC(=O)CC[C@H](NC(=O)c1ccc(CNc2nc3cc(C(F)(F)F)ccc3nc2C(=O)OCC)cc1)C(=O)OCC
TGI [1]: > 48.4 µM | TGI [2]: > 100 µM | TGI [3]: > 93.2 µM | TGI [4]: > 100 µM | TGI [5]: > 100 µM | TGI [6]: > 100 µM | TGI [7]: > 100 µM | TGI [8]: > 100 µM | TGI [10]: 77.7 µM | TGI [11]: > 100 µM | TGI [19]: > 100 µM | TGI [12]: > 100 µM | TGI [13]: > 53.2 µM | TGI [14]: > 100 µM | TGI [16]: > 100 µM | TGI [17]: 38.5 µM | TGI [18]: > 100 µM

Cc1c2ccccc2c(CSC(=N)N)c2ccccc12
TGI [1]: 1.03 µM | TGI [2]: 2.67 µM | TGI [3]: 0.303 µM | TGI [4]: 0.809 µM | TGI [5]: 0.545 µM | TGI [6]: 0.457 µM | TGI [7]: 0.947 µM | TGI [8]: 0.37 µM | TGI [9]: 0.514 µM | TGI [10]: 0.374 µM | TGI [11]: 0.4 µM | TGI [19]: 0.0588 µM | TGI [12]: 0.343 µM | TGI [13]: 2.73 µM | TGI [14]: 0.127 µM | TGI [16]: 0.406 µM | TGI [17]: 0.667 µM | TGI [18]: 1.06 µM

O=C1CC(C(O)C(O)C(O)CO)CC(=O)N1 (stereo not drawn)
TGI [1]: > 100 µM | TGI [3]: > 100 µM | TGI [4]: > 100 µM | TGI [5]: > 100 µM | TGI [6]: > 100 µM | TGI [7]: > 100 µM | TGI [8]: > 100 µM | TGI [9]: > 100 µM | TGI [10]: > 100 µM | TGI [11]: > 100 µM | TGI [19]: > 100 µM | TGI [12]: > 100 µM | TGI [13]: > 100 µM | TGI [14]: > 100 µM | TGI [15]: > 100 µM | GI50 [16]: > 100 µM | TGI [16]: > 100 µM | TGI [17]: > 100 µM | TGI [18]: > 100 µM

Cc1cccc(C)c1NC(=O)C(=O)C(c1ccccc1Cl)S(=O)(=O)Cc1ccccc1Cl (stereo not drawn)
TGI [1]: > 73.4 µM | TGI [2]: > 61 µM | TGI [3]: > 100 µM | TGI [4]: > 100 µM | TGI [5]: > 100 µM | TGI [6]: > 100 µM | TGI [7]: > 100 µM | TGI [8]: > 100 µM | TGI [9]: > 100 µM | TGI [10]: > 100 µM | TGI [19]: > 100 µM | TGI [12]: 0.533 µM | TGI [13]: > 100 µM | TGI [14]: > 100 µM | TGI [15]: > 100 µM | TGI [16]: > 100 µM | TGI [17]: > 100 µM | TGI [18]: > 100 µM

CCOC(=O)c1ccc(OCc2nc3cc(C(F)(F)F)ccc3nc2-c2ccccc2)cc1
TGI [1]: > 100 µM | TGI [3]: > 100 µM | TGI [4]: > 100 µM | TGI [5]: > 100 µM | TGI [6]: > 100 µM | TGI [7]: > 100 µM | TGI [8]: > 100 µM | TGI [9]: > 100 µM | TGI [10]: > 100 µM | TGI [11]: > 100 µM | TGI [19]: > 100 µM | TGI [12]: > 100 µM | TGI [13]: > 100 µM | TGI [14]: > 100 µM | TGI [15]: > 100 µM | TGI [16]: > 100 µM | TGI [17]: > 100 µM | TGI [18]: > 100 µM

COc1cc2c(NCCN(C)C)nc3c4cc5c(cc4ccc3c2cc1OC)OCO5
TGI [1]: 9.05 µM | TGI [2]: 8.65 µM | TGI [3]: 4.01 µM | TGI [4]: 9.16 µM | TGI [5]: 8.07 µM | TGI [6]: 6.99 µM | TGI [7]: 7.22 µM | TGI [8]: 5.82 µM | TGI [9]: 7.91 µM | TGI [10]: 5.38 µM | TGI [11]: 5.86 µM | TGI [19]: 6.44 µM | TGI [12]: 9.52 µM | TGI [14]: 5.3 µM | TGI [15]: 8.93 µM | TGI [16]: 7.32 µM | TGI [17]: 5.88 µM

COc1ccc2c(c1)OCC1=C2Oc2ccccc2C1
TGI [1]: > 100 µM | TGI [2]: > 100 µM | TGI [3]: > 100 µM | TGI [5]: > 100 µM | TGI [6]: 71.1 µM | TGI [7]: > 100 µM | TGI [8]: 49.2 µM | TGI [9]: > 100 µM | TGI [11]: > 100 µM | TGI [12]: > 100 µM | TGI [13]: > 100 µM | TGI [14]: 85.5 µM | TGI [15]: 54 µM | TGI [16]: > 100 µM | TGI [17]: > 100 µM | TGI [18]: 55.9 µM

C=C1CC(COc2ccc3c(C)c(Cl)c(=O)oc3c2)(c2ccccc2)OC1=O (stereo not drawn)
TGI [1]: 14.4 µM | TGI [2]: 16.2 µM | TGI [3]: 6.04 µM | TGI [4]: 6.43 µM | TGI [5]: 6.69 µM | TGI [6]: 5.48 µM | TGI [7]: 2.62 µM | TGI [8]: 1.83 µM | TGI [9]: 3.67 µM | TGI [10]: 23.5 µM | TGI [11]: 25.7 µM | TGI [12]: 1.42 µM | TGI [13]: 6.71 µM | TGI [15]: 3.59 µM | TGI [16]: 9.66 µM | TGI [17]: 3.18 µM | TGI [18]: 2.82 µM
